Results reported in PubChem BioAssay AID624432 (The Scripps Research Institute Molecular Screening Center, 2012).
Activity calls are given as the source filed them.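 How the source made its calls: active means compounds whose fitted IC50 is below 25 µM; inactive means the rest.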

Target: Serine/threonine-protein phosphatase 5 (Homo sapiens) (UniProt P53041)
Experiment: IC50 of PP5 catalytic subunit inhibitors – biochemical, fluorescence, powder samples, fifth round, dose response (AID 624432)
Conditions: purified PP5c, OMFP dephosphorylation

Chain of Serine/threonine-protein phosphatase 5 (Homo sapiens) (P53041 whole entry, looked up): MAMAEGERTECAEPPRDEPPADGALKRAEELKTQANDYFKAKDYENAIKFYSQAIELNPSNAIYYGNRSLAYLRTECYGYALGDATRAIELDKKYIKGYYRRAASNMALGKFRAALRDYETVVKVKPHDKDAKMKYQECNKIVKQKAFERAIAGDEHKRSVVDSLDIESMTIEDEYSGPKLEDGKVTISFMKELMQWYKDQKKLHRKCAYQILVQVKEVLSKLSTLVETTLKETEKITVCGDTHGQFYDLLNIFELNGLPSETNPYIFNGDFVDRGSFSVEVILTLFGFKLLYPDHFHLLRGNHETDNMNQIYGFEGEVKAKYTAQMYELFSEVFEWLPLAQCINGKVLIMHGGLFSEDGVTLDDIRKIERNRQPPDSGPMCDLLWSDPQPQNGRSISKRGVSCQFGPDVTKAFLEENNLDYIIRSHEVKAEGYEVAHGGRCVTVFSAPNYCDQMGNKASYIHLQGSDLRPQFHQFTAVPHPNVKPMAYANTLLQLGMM

| IC50 | SMILES |
| --- | --- |
| inactive | Cc1cccc(C)c1-c1n[nH]nc1C(=O)O |
| > 1000 µM (inactive) | O=C(O)c1n[nH]nc1-c1ccccc1C(F)(F)F |
